Assay results reported in PubChem BioAssay AID248 (DTP/NCI, 2004).
Where “and” joins values, the source holds several entries; their conditions need not be identical. Equal entries are not always repeated. Toxic doses and inconclusive results are not listed. No stated cut-off is given here; in the data, active means T/C of 150% or more; inactive means T/C below 125%.

System: L1210 leukemia ip in BDF1 mice, survival T/C
Assay: NCI In Vivo Anticancer Drug Screen. Data for tumor model L1210 Leukemia (intraperitoneal) in B6D2F1 (BDF1) mice
Conditions: higher = longer survival
Method in brief: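 Mice bearing the transplanted tumor received compound or vehicle. Survival of the treated group was divided by that of the vehicle-treated control group to give the ratio.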

Measured: T/C

CN(N=O)C(=O)N[C@@H](C=O)[C@@H](O)[C@H](O)[C@H](O)CO
inactive: endpoint: mean survival time, dose: 0.5 mg/kg/injection, schedule: Q03HX040 (ip), vehicle: other 94 % of control | endpoint: mean survival time, dose: 1.0 mg/kg/injection, schedule: Q03HX040 (ip), vehicle: other 98 % of control | endpoint: mean survival time, dose: 2.0 mg/kg/injection, schedule: Q03HX040 (ip), vehicle: other 92 % of control | endpoint: mean survival time, dose: 2.3 mg/kg/injection, schedule: Q01DX009 (ip), vehicle: other 96 % of control and 101 % of control | endpoint: mean survival time, dose: 4.0 mg/kg/injection, schedule: Q03HX040 (ip), vehicle: other 104 % of control | endpoint: mean survival time, dose: 4.5 mg/kg/injection, schedule: Q01DX009 (ip), vehicle: other 92 % of control and 105 % of control | endpoint: mean survival time, dose: 8.0 mg/kg/injection, schedule: Q03HX040 (ip), vehicle: other 112 % of control | endpoint: mean survival time, dose: 8.0 mg/kg/injection, schedule: Q## X009 (ip), vehicle: other 98 % of control | endpoint: mean survival time, dose: 9.0 mg/kg/injection, schedule: Q01DX009 (ip), vehicle: other 99 % of control and 111 % of control | endpoint: mean survival time, dose: 12.5 mg/kg/injection, schedule: Q01DX009 (ip), vehicle: saline 101 % of control and 107 % of control | endpoint: mean survival time, dose: 12.5 mg/kg/injection, schedule: Q01DX009 (ip), vehicle: water 104 % of control | endpoint: mean survival time, dose: 16.0 mg/kg/injection, schedule: Q01DX017 (ip), vehicle: other 107 % of control | endpoint: mean survival time, dose: 16.0 mg/kg/injection, schedule: Q03HX040 (ip), vehicle: other 110 % of control | endpoint: mean survival time, dose: 16.0 mg/kg/injection, schedule: Q## X009 (ip), vehicle: other 94 % of control | endpoint: mean survival time, dose: 17.0 mg/kg/injection, schedule: Q04DX002 (ip), vehicle: other 97 % of control and 113 % of control | endpoint: mean survival time, dose: 24.5 mg/kg/injection, schedule: Q01DX Z (ip), vehicle: water 112 % of control | endpoint: mean survival time, dose: 25.0 mg/kg/injection, schedule: Q01DX009 (ip), vehicle: other 120 % of control | endpoint: mean survival time, dose: 25.0 mg/kg/injection, schedule: Q01DX Z (ip), vehicle: water 115 % of control | endpoint: mean survival time, dose: 25.0 mg/kg/injection, schedule: Q04DX003 (ip), vehicle: saline 96 % of control and 100 % of control | endpoint: mean survival time, dose: 32.0 mg/kg/injection, schedule: Q01DX001 (ip), vehicle: other 100 % of control | endpoint: mean survival time, dose: 32.0 mg/kg/injection, schedule: Q02DX009 (ip), vehicle: other 112 % of control | endpoint: mean survival time, dose: 32.0 mg/kg/injection, schedule: Q04DX005 (ip), vehicle: other 101 % of control | endpoint: mean survival time, dose: 32.0 mg/kg/injection, schedule: Q08DX003 (ip), vehicle: other 101 % of control | endpoint: mean survival time, dose: 32.0 mg/kg/injection, schedule: Q## X009 (ip), vehicle: other 112 % of control | endpoint: mean survival time, dose: 49.5 mg/kg/injection, schedule: Q01DX Z (ip), vehicle: water 120 % of control | endpoint: mean survival time, dose: 50.0 mg/kg/injection, schedule: Q01DX009 (ip), vehicle: citric acid 110 % of control | endpoint: mean survival time, dose: 50.0 mg/kg/injection, schedule: Q04DX002 (ip), vehicle: saline 104 % of control | endpoint: mean survival time, dose: 50.0 mg/kg/injection, schedule: Q04DX003 (ip), vehicle: saline 105 % of control and 110 % of control | endpoint: mean survival time, dose: 64.0 mg/kg/injection, schedule: Q01DX001 (ip), vehicle: other 105 % of control | endpoint: mean survival time, dose: 64.0 mg/kg/injection, schedule: Q04DX005 (ip), vehicle: other 111 % of control | endpoint: mean survival time, dose: 64.0 mg/kg/injection, schedule: Q08DX003 (ip), vehicle: other 104 % of control | endpoint: mean survival time, dose: 67.0 mg/kg/injection, schedule: Q01DX009 (ip), vehicle: citric acid 116 % of control | endpoint: mean survival time, dose: 100.0 mg/kg/injection, schedule: Q01DX001 (ip), vehicle: other 103 % of control | endpoint: mean survival time, dose: 100.0 mg/kg/injection, schedule: Q01DX009 (ip), vehicle: citric acid 123 % of control and 124 % of control and 89 % of control | endpoint: mean survival time, dose: 100.0 mg/kg/injection, schedule: Q01DX009 (ip), vehicle: other 118 % of control | endpoint: mean survival time, dose: 100.0 mg/kg/injection, schedule: Q01DX Z (ip), vehicle: water 117 % of control | endpoint: mean survival time, dose: 100.0 mg/kg/injection, schedule: Q04DX002 (ip), vehicle: saline 120 % of control | endpoint: mean survival time, dose: 100.0 mg/kg/injection, schedule: Q04DX003 (ip), vehicle: saline 97 % of control | endpoint: mean survival time, dose: 128.0 mg/kg/injection, schedule: Q01DX001 (ip), vehicle: other 114 % of control | endpoint: mean survival time, dose: 128.0 mg/kg/injection, schedule: Q02DX009 (ip), vehicle: other 117 % of control | endpoint: mean survival time, dose: 128.0 mg/kg/injection, schedule: Q04DX005 (ip), vehicle: other 118 % of control | endpoint: mean survival time, dose: 128.0 mg/kg/injection, schedule: Q08DX003 (ip), vehicle: other 111 % of control | endpoint: mean survival time, dose: 138.0 mg/kg/injection, schedule: Q01DX009 (ip), vehicle: other 92 % of control | endpoint: mean survival time, dose: 150.0 mg/kg/injection, schedule: Q01DX009 (ip), vehicle: citric acid 90 % of control | endpoint: mean survival time, dose: 200.0 mg/kg/injection, schedule: Q01DX001 (ip), vehicle: other 122 % of control | endpoint: mean survival time, dose: 200.0 mg/kg/injection, schedule: Q04DX003 (ip), vehicle: saline 96 % of control and 97 % of control | endpoint: mean survival time, dose: 250.0 mg/kg/injection, schedule: Q01DX001 (ip), vehicle: citric acid 116 % of control | endpoint: mean survival time, dose: 256.0 mg/kg/injection, schedule: Q01DX001 (ip), vehicle: other 110 % of control | endpoint: mean survival time, dose: 256.0 mg/kg/injection, schedule: Q04DX005 (ip), vehicle: other 114 % of control | endpoint: mean survival time, dose: 256.0 mg/kg/injection, schedule: Q08DX003 (ip), vehicle: other 117 % of control | endpoint: mean survival time, dose: 300.0 mg/kg/injection, schedule: Q01DX001 (ip), vehicle: citric acid 118 % of control and 122 % of control | endpoint: mean survival time, dose: 300.0 mg/kg/injection, schedule: Q04DX002 (ip), vehicle: acid diluted with saline 93 % of control | endpoint: mean survival time, dose: 350.0 mg/kg/injection, schedule: Q01DX001 (ip), vehicle: citric acid 112 % of control | endpoint: mean survival time, dose: 400.0 mg/kg/injection, schedule: Q01DX001 (ip), vehicle: citric acid 111 % of control | endpoint: mean survival time, dose: 400.0 mg/kg/injection, schedule: Q01DX009 (ip), vehicle: saline 108 % of control | endpoint: mean survival time, dose: 400.0 mg/kg/injection, schedule: Q04DX002 (ip), vehicle: saline 93 % of control and 123 % of control | endpoint: mean survival time, dose: 518.0 mg/kg/injection, schedule: Q04DX002 (ip), vehicle: other 95 % of control | endpoint: median survival time, dose: 14.0 mg/kg/injection, schedule: Q01DX009 (ip), vehicle: Klucel (hydroxypropylcellulose) (HPC) 111 % of control | endpoint: median survival time, dose: 17.0 mg/kg/injection, schedule: Q01DX009 (ip), vehicle: water 108 % of control and 114 % of control | endpoint: median survival time, dose: 26.0 mg/kg/injection, schedule: Q01DX009 (ip), vehicle: water 104 % of control and 117 % of control | endpoint: median survival time, dose: 39.0 mg/kg/injection, schedule: Q01DX009 (ip), vehicle: Klucel (hydroxypropylcellulose) (HPC) 116 % of control | endpoint: median survival time, dose: 39.0 mg/kg/injection, schedule: Q01DX009 (ip), vehicle: water 111 % of control | endpoint: median survival time, dose: 87.0 mg/kg/injection, schedule: Q01DX009 (ip), vehicle: water 114 % of control | endpoint: median survival time, dose: 130.0 mg/kg/injection, schedule: Q01DX009 (ip), vehicle: water 86 % of control

CCCCCCCCCCCCCCCCCC(O)CCCCCCCCCCCCCCCCC
inactive: endpoint: mean survival time, dose: 100.0 mg/kg/injection, schedule: Q04DX003 (ip), vehicle: acetone 94 % of control | endpoint: mean survival time, dose: 200.0 mg/kg/injection, schedule: Q04DX003 (ip), vehicle: acetone 96 % of control | endpoint: mean survival time, dose: 400.0 mg/kg/injection, schedule: Q04DX003 (ip), vehicle: acetone 86 % of control

COc1cc2nc(/C=C/c3nc4cc(OC)c(OC)cc4[nH]3)[nH]c2cc1OC
inactive: endpoint: mean survival time, dose: 25.0 mg/kg/injection, schedule: Q01DX001 (ip), vehicle: saline with Tween-80 100 % of control | endpoint: mean survival time, dose: 50.0 mg/kg/injection, schedule: Q01DX001 (ip), vehicle: saline with Tween-80 100 % of control | endpoint: mean survival time, dose: 100.0 mg/kg/injection, schedule: Q01DX001 (ip), vehicle: saline with Tween-80 94 % of control

CC(=O)Oc1ccccc1C1SCSCS1
inactive: endpoint: mean survival time, dose: 100.0 mg/kg/injection, schedule: Q01DX001 (ip), vehicle: Klucel (hydroxypropylcellulose) (HPC) 100 % of control | endpoint: mean survival time, dose: 200.0 mg/kg/injection, schedule: Q01DX001 (ip), vehicle: Klucel (hydroxypropylcellulose) (HPC) 100 % of control | endpoint: mean survival time, dose: 400.0 mg/kg/injection, schedule: Q01DX001 (ip), vehicle: Klucel (hydroxypropylcellulose) (HPC) 94 % of control

CC(=O)Nc1cc(Cl)c(Cl)cc1N
inactive: endpoint: mean survival time, dose: 100.0 mg/kg/injection, schedule: Q01DX009 (ip), vehicle: Klucel (hydroxypropylcellulose) (HPC) 95 % of control | endpoint: mean survival time, dose: 200.0 mg/kg/injection, schedule: Q01DX009 (ip), vehicle: Klucel (hydroxypropylcellulose) (HPC) 98 % of control | endpoint: mean survival time, dose: 400.0 mg/kg/injection, schedule: Q01DX009 (ip), vehicle: Klucel (hydroxypropylcellulose) (HPC) 96 % of control

NC(=O)/C=C/c1ccc([N+](=O)[O-])cc1
inactive: endpoint: mean survival time, dose: 100.0 mg/kg/injection, schedule: Q04DX003 (ip), vehicle: Klucel (hydroxypropylcellulose) (HPC) 97 % of control | endpoint: mean survival time, dose: 200.0 mg/kg/injection, schedule: Q04DX003 (ip), vehicle: Klucel (hydroxypropylcellulose) (HPC) 100 % of control | endpoint: mean survival time, dose: 400.0 mg/kg/injection, schedule: Q04DX003 (ip), vehicle: Klucel (hydroxypropylcellulose) (HPC) 97 % of control
